Where two headings read alike, the source gives them in different places.
Columns and labels:
[1] = target: GDP-bound NRAS wild-type protein (Homo sapiens, UniProt P01111); test: Binding to NRAS by surface plasmon resonance (SPR), Single Cycle Kinetics; settings: SPR; for NRAS/KRAS (ratio of KD value for NRAS to KD value for KRAS): GDP-bound NRAS wild-type protein vs GDP-bound KRAS wild-type protein
[2] = tested on: human lung cancer strain NCI-H441;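 also: cell proliferation inhibition after four days measured by CellTiter-Glo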
[3] = target: GDP-bound KRAS wild-type protein (Homo sapiens, UniProt P01116); test: Binding to KRAS by surface plasmon resonance (SPR), Single Cycle Kinetics; settings: SPR, Single Cycle Kinetics, GDP-bound KRAS wild-type protein, read-out: KRAS KD
[4] = target: GDP-bound HRAS wild-type protein (Homo sapiens, UniProt P01112); test: Binding to HRAS by surface plasmon resonance (SPR), Single Cycle Kinetics; settings: SPR; for HRAS/KRAS (ratio of KD value for HRAS to KD value for KRAS): GDP-bound HRAS wild-type protein vs GDP-bound KRAS wild-type protein
Chain of GDP-bound HRAS wild-type protein (P01112 whole entry): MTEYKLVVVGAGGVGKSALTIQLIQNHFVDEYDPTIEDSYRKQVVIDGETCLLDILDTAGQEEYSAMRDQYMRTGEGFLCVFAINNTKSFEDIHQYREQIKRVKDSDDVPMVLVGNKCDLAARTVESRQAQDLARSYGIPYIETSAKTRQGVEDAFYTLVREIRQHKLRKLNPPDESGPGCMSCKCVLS

Chain of GDP-bound KRAS wild-type protein (P01116 whole entry): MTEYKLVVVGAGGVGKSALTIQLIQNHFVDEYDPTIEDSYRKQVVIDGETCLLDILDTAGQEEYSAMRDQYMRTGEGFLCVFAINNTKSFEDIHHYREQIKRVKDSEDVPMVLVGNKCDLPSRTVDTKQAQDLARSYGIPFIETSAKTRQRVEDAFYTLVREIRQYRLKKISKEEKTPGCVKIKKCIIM
Chain of GDP-bound NRAS wild-type protein (P01111 whole entry): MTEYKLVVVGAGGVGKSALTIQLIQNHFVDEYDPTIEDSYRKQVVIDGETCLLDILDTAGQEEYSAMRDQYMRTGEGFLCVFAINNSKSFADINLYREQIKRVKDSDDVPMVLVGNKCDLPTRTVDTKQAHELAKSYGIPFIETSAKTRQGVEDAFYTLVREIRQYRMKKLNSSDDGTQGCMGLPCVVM

IC50 ([2]; read-out: NCI-H441 cell proliferation inhibitory activity, 50% proliferation inhibitory concentration (IC50 value), NCI-H441, four days, CellTiter-Glo) | Kd [3] | IC50 [2] | Kd ([3]; 1:1 binding model) | SMILES | NRAS/KRAS (ratio of KD value for NRAS to KD value for KRAS) [1] | ratio of the KD value with respect to GDP-bound NRAS wild-type protein to the KD value with respect to KRAS ([1]; KD(NRAS)/KD(KRAS)) | HRAS/KRAS (ratio of KD value for HRAS to KD value for KRAS) [4] | ratio of the KD value with respect to GDP-bound HRAS wild-type protein to the KD value with respect to KRAS ([4]; KD(HRAS)/KD(KRAS)) | NRAS/KRAS (ratio of KD value for NRAS to KD value for KRAS) ([1]; KD ratio class) | HRAS/KRAS (ratio of KD value for HRAS to KD value for KRAS) ([4]; KD ratio class)
2.3 nM | 0.048 nM |  |  | CC[C@H](C)[C@@H]1NC(=O)[C@@H]2CCCCc3ccc(cc3)C[C@@H](C(=O)N(C)CC(=O)N[C@@H](CCc3ccc(C(F)(F)F)c(OC)c3)C(=O)N3C[C@H](OC(C)C)C[C@H]3C(=O)NC3(CC(C)(C)C3)C(=O)N(C)[C@@H](C3CCCC3)C(=O)N(C)[C@H](C(=O)N(C)CC)CC(=O)N2C)N2CC/C=C\C[C@@H](C2=O)N(C)C(=O)CN(C)C1=O [PP3078] | A (a compound having 10 or more and less than 20 is denoted as A) | A (a compound having 10 or more and less than 20 is denoted as A) | B (a compound having 3 or more and less than 10 is denoted as B) | B (a compound having 3 or more and less than 10 is denoted as B) |  | 
 | 0.096 nM | 14.8 nM |  | CCO[C@@H]1C[C@H]2C(=O)NC3(CCC3)C(=O)N(C)[C@@H](C3CCCC3)C(=O)N(C)[C@H](C(=O)N(C)C)CC(=O)N(C)[C@@H](Cc3cccs3)C(=O)N[C@@H]([C@@H](C)CC)C(=O)N(C)CC(=O)N(C)[C@H]3CCCCCN(C3=O)[C@@H](Cc3ccc(F)cc3)C(=O)N(C)CC(=O)N[C@@H](CCc3cc(F)c(C(F)(F)F)c(F)c3)C(=O)N2C1 [PP1197] | B (a compound having 3 or more and less than 10 is denoted as B) |  | B (a compound having 3 or more and less than 10 is denoted as B) |  |  | 
 | 0.17 nM | 8.6 nM |  | CCOC[C@H]1C(=O)N[C@@H]([C@@H](C)CC)C(=O)N(C)CC(=O)N(C)[C@H]2C/C=C\CCN(C2=O)[C@@H](Cc2ccc(C)cc2)C(=O)N(C)CC(=O)N[C@@H](CCc2ccc(C(F)(F)F)c(Cl)c2)C(=O)N2C[C@@H](C)C[C@H]2C(=O)NC2(CC(C)(C)C2)C(=O)N(C)[C@@H](C2CCCC2)C(=O)N(C)[C@H](C(=O)N(C)CC)CC(=O)N1C [PP2451] | A (a compound having 10 or more and less than 20 is denoted as A) |  | A (a compound having 10 or more and less than 20 is denoted as A) |  |  | 
 |  | 10.9 nM | 0.081 nM | C#CC[C@H]1C(=O)N[C@@H]([C@@H](C)CC)C(=O)N(C)CC(=O)N(C)[C@H]2CC[C@@H](C)CN(C2=O)[C@@H](Cc2ccc(C(F)(F)F)cc2)C(=O)N(C)CC(=O)N[C@@H](CCc2ccc(C(F)(F)F)c(Cl)c2)C(=O)N2CCC[C@H]2C(=O)NC2(CCCC2)C(=O)N(C)[C@@H](C2CCCC2)C(=O)N(C)[C@H](C(=O)N(C)C)CC(=O)N1C [PP1340] |  |  |  |  | B (a compound having 3 or more and less than 10 is denoted as B) | B (a compound having 3 or more and less than 10 is denoted as B)
 |  | 7.3 nM | 0.069 nM | CCO[C@@H]1C[C@H]2C(=O)NC3(CCC3)C(=O)N(C)[C@@H](C3CCCC3)C(=O)N(C)[C@H](C(=O)N(C)C)CC(=O)N(C)[C@@H](CC3CCCC3)C(=O)N[C@@H]([C@@H](C)CC)C(=O)N(C)CC(=O)N(C)[C@H]3C/C=C\CCN(C3=O)[C@@H](Cc3ccc(C(F)(F)F)cc3)C(=O)N(C)CC(=O)N[C@@H](CCc3ccc(C(F)(F)F)c(OC)c3)C(=O)N2C1 [PP1248, (2S,8S,12R,14S,20S,23S,27S,30S,36S,38Z)-20-cyclopentyl-27-(cyclopentylmethyl)-12-ethoxy-8-[2-[3-methoxy-4-(trifluoromethyl)phenyl]ethyl]-N,N,4,19,22,26,32,35-octamethyl-30-[(1S)-1-methylpropyl]-3,6,9,15,18,21,25,28,31,34,42-undecaoxo-2-[[4-(trifluoromethyl)phenyl]methyl]spiro[1,4,7,10,16,19,22,26,29,32,35-undecazatricyclo[34.5.1.0^10,14]dotetracont-38-ene-17,1′-cyclobutane]-23-carboxamide] |  |  |  |  | A (a compound having 10 or more and less than 20 is denoted as A) | A (a compound having 10 or more and less than 20 is denoted as A)

From patent publication US20240158446A1, “CYCLIC COMPOUND HAVING SELECTIVE INHIBITORY ACTION ON KRAS OVER HRAS AND NRAS” (CHUGAI SEIYAKU KABUSHIKI KAISHA, priority 2021, published 2024)
